Some test systems named below: OVCAR-8 ovarian; MCF7 breast; SF-539 CNS; HCT-15 colon; RPMI-8226 leukemia; UACC-62 melanoma; TK-10 renal; SNB-75 CNS; SK-MEL-2 melanoma; MOLT-4 leukemia.
Assay in all cases: NCI-60 cell line screen, 48 h

Where “and” joins values, the source holds several entries; their conditions need not be identical. Equal values may be shown once.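 Values below derive from 48-hour exposures of cells grown in 96-well plates, with endpoints linearly interpolated between the two concentrations bracketing the appropriate inhibition level. GI50 is the concentration that inhibits growth by half. The concentration for full growth arrest is given as TGI.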

Consider `CN(CCOc1ccc(NS(C)(=O)=O)cc1)CCc1ccc(NS(C)(=O)=O)cc1`, for which the GI50 with OVCAR-8 ovarian, in the test on MCF7 breast, in the test on SF-539 CNS, with HCT-15 colon, in the test on RPMI-8226 leukemia and in the test on UACC-62 melanoma was more than 100 µM throughout. Further, the GI50 with TK-10 renal, with SNB-75 CNS, in the test on SK-MEL-2 melanoma and in the test with MOLT-4 leukemia was more than 100 µM in each case. Further, the TGI in the test on OVCAR-8 ovarian, in the test on MCF7 breast, in the test with SF-539 CNS, in the test on HCT-15 colon, in the test with RPMI-8226 leukemia and in the test with UACC-62 melanoma was more than 100 µM each time. Further, the TGI with TK-10 renal, in the test on SNB-75 CNS, in the test on SK-MEL-2 melanoma and in the test with MOLT-4 leukemia was more than 100 µM each time.

`Cc1nc(C(=O)OCc2ccccc2)cc(OCc2ccccc2)c1C`: the GI50 was 21.9 µM in the test on OVCAR-8 ovarian; 18.3 µM in the test with MCF7 breast; 18.1 µM in the test on SF-539 CNS; 18.6 µM in the test with HCT-15 colon; 20.9 µM in the test on RPMI-8226 leukemia; 11 µM in the test on UACC-62 melanoma. Further, the GI50 with TK-10 renal was 50.4 µM; with SNB-75 CNS, 17.5 µM; with SK-MEL-2 melanoma, 26.4 µM; in the test on MOLT-4 leukemia, 0.517 µM. Besides, the TGI is 69.2 µM in the test with OVCAR-8 ovarian; 43.2 µM in the test with MCF7 breast; 35.2 µM with SF-539 CNS; more than 60.6 µM in the test on HCT-15 colon; more than 72.7 µM in the test on RPMI-8226 leukemia; 24.8 µM in the test with UACC-62 melanoma. The TGI in the test with TK-10 renal was more than 100 µM; in the test with SNB-75 CNS it was 39.4 µM; with SK-MEL-2 melanoma, more than 84.5 µM; with MOLT-4 leukemia, 7.53 µM.

With `CCOC(=O)C(Cc1cc(OC)c(CC(C(=O)OCC)C(=O)OCC)cc1OC)C(=O)OCC`, the TGI with OVCAR-8 ovarian, in the test on MCF7 breast, in the test on SF-539 CNS, with HCT-15 colon, in the test on RPMI-8226 leukemia and in the test on UACC-62 melanoma was more than 100 µM in each case. The TGI in the test with TK-10 renal is more than 100 µM; with SNB-75 CNS, 57.6 µM; in the test with SK-MEL-2 melanoma, more than 100 µM; with MOLT-4 leukemia it was more than 100 µM.

Take `COc1cc(C=NCC(=O)CSC(c2ccccc2)c2ccccc2)ccc1O`: the GI50 was 12.6 µM in the test on OVCAR-8 ovarian; 21.2 µM with MCF7 breast; 14.8 µM with SF-539 CNS; 13.8 µM in the test with HCT-15 colon; 6.26 µM with RPMI-8226 leukemia; 13.6 µM in the test on UACC-62 melanoma. The GI50 with TK-10 renal is 14.7 µM; in the test with SNB-75 CNS it was 13 µM; in the test on SK-MEL-2 melanoma it was 14.9 µM; with MOLT-4 leukemia, 9.05 µM. Further, the TGI is 25.1 µM in the test with OVCAR-8 ovarian; more than 100 µM in the test on MCF7 breast; 29.1 µM in the test on SF-539 CNS; 30.8 µM with HCT-15 colon; 25.1 µM with RPMI-8226 leukemia; 27.5 µM in the test with UACC-62 melanoma. For the same compound, the TGI with TK-10 renal was found to be 53.7 µM; with SNB-75 CNS, 25.9 µM; in the test with SK-MEL-2 melanoma, 28.7 µM; in the test on MOLT-4 leukemia, 31.8 µM.

On to `O=C1C=C(NCCc2ccccc2)c2ccccc2C1=O`, for which the TGI with OVCAR-8 ovarian was 19.7 µM; in the test on MCF7 breast, 3.34 µM; in the test with SF-539 CNS it was 4.46 µM; with HCT-15 colon, 3.6 µM; with RPMI-8226 leukemia, 67.5 µM; with UACC-62 melanoma it was 3.34 µM. Moreover, the TGI is 27.3 µM with TK-10 renal, 3.14 µM with SNB-75 CNS, 5.18 µM with SK-MEL-2 melanoma and 64.8 µM with MOLT-4 leukemia.

Take `Cc1c(-c2ccc(-c3ccccc3F)cc2)nc2ccc(F)cc2c1C(=O)O`: the GI50 in the test on OVCAR-8 ovarian was 0.257 µM and 0.711 µM; with MCF7 breast it was 0.445 µM and 0.979 µM; in the test on SF-539 CNS, 0.0959 µM and 0.5 µM; in the test on HCT-15 colon, 0.0764 µM and 0.5 µM; with RPMI-8226 leukemia, 0.811 µM; with UACC-62 melanoma it was 0.5 µM. Besides, the GI50 was 62.7 µM in the test with TK-10 renal; 36.7 µM and 81.6 µM with SNB-75 CNS; 135 µM in the test with SK-MEL-2 melanoma; 0.5 µM in the test with MOLT-4 leukemia. The TGI in the test with OVCAR-8 ovarian is 161 µM and 244 µM; with MCF7 breast it was 170 µM and 405 µM; in the test with SF-539 CNS, 25.6 µM and 110 µM and 29.9 µM; with HCT-15 colon it was 114 µM and 153 µM; in the test on UACC-62 melanoma, 48.4 µM and 164 µM; in the test on TK-10 renal it was 208 µM and 471 µM. The TGI is 248 µM and 316 µM in the test on SNB-75 CNS; 148 µM and 909 µM in the test on SK-MEL-2 melanoma; 66.7 µM and 71.7 µM and 294 µM in the test with MOLT-4 leukemia.

Consider `Cc1cc(C)c(-c2c(O)c(Br)c(-c3c(C)cc(C)c(Br)c3C)c(O)c2Br)c(C)c1Br`, for which the GI50 was 3.08 µM in the test with OVCAR-8 ovarian; 2.38 µM with MCF7 breast; 2.6 µM with SF-539 CNS; 2.51 µM in the test on HCT-15 colon; 2.08 µM with RPMI-8226 leukemia; 1.54 µM in the test on UACC-62 melanoma. The GI50 with TK-10 renal was 3.37 µM; in the test with SNB-75 CNS it was 1.88 µM; in the test on SK-MEL-2 melanoma, 2 µM; in the test on MOLT-4 leukemia it was 2.39 µM. In addition, the TGI in the test on OVCAR-8 ovarian is 10.4 µM; with MCF7 breast, 11.8 µM; in the test with SF-539 CNS, 8.11 µM; in the test on HCT-15 colon, 10.8 µM; in the test on RPMI-8226 leukemia, 11.9 µM; in the test with UACC-62 melanoma, 4.04 µM. Further, the TGI amounted to 13.4 µM with TK-10 renal, 10.3 µM with SNB-75 CNS, 6.2 µM in the test with SK-MEL-2 melanoma and 13 µM with MOLT-4 leukemia.

(Values after PubChem BioAssay (NCI).)
